For data set [1], the system named is infections. The following applies: cited from earlier work.
Data set [2] deals with broad spectrum of microorganisms including antibiotic-resistant strains of Streptococcus Pneumoniae. To be noted: cited from earlier work.
The conditions of data set [3]: parenterally and via oral administration; cited from earlier work.
Data set [4] in a line: aqueous solubility of the crystalline hydrates. Format: physicochemical. To be noted: for aqueous solubility (rank among the three major hydrates): water, 25° C., sesquihydrate, pentahydrate, hexahydrate compared. The source says: (§1) The crystal structures and ideal water content of seven of these forms were established through single crystal x-ray analyses. Each form gives rise to unique and characteristic single crystal and powder x-ray diffraction. The kinetic and thermodynamic relationships among the three major hydrates were investigated leading to the understanding of their stability order in water as a function of temperature and their interconversion relationship. […] The implications of these findings were very significant in the discovery and development of highly homogeneous gatifloxacin pentahydrate in accordance with the present invention. Further, these findings made it evident that very strict process controls were necessary in the production of crystalline gatifloxacin and dosage forms containing it and that it was necessary to obtain crystalline gatifloxacin pentahydrate in high homogeneity vs. the other crystalline forms in order to realize the advantageous properties thereof. By high homogeneity is meant that crystalline gatifloxacin pentahydrate must contain no detectable levels of the other crystalline forms thereof as determined by powder x-ray diffraction technique.

Data set [5] is described as follows: stability studies under stressed conditions of temperature and humidity. Format: physicochemical. From the text: It has been found in accordance with the present invention that the advantageous stability and solubility properties of the pentahydrate of gatifloxacin can be applied to the formulation of pharmaceutical dosage forms. While the pentahydrate of gatifloxacin can be utilized to prepare tablets by wet granulation, it can also be formulated in accordance with the present invention into stable pharmaceutical solid dosage forms by conventional dry granulation. […] Such formulations will include conventional inert ingredients such as binders, excipients, disintegrants, and the like. Examples of such agents include various starch derivatives such as pregelatinized starch, hydroxypropyl cellulose microcrystalline cellulose, sodium starch glycolate, magnesium stearate, lactose, mannitol and the like.

Data set [6] can be described thus: physical stability / interconversion of crystalline forms in water. It is filed as physicochemical.
Source text: as §1

The conditions of data set [7]: cited from earlier work.

As to `COc1c(N2CCNC(C)C2)c(F)cc2c(=O)c(C(=O)O)cn(C3CC3)c12` (stereo not drawn) [Gatifloxacin, 1-cyclopropyl-6-fluoro-1,4-dihydro-8-methoxy-7-(3-methyl-1piperizinyl)-4-oxo-3-quinolinecarboxylic acid], the overall tolerability entry in data set [1] (in vivo) was “excellent overall tolerability”. Also, in data set [1] (individuals with impaired liver function), the “safety and efficacy in treatment of infections” value was “safe and efficacious”. Also, the effectiveness against microorganisms entry in data set [2] is “effective”. Moreover, the efficacy entry in data set [3] is “excellent efficacy”.
Take `COc1c(N2CCNC(C)C2)c(F)cc2c(=O)c(C(=O)O)cn(C3CC3)c12` (stereo not drawn) [gatifloxacin pentahydrate, 1cyclopropyl-6-fluoro-1,4-dihydro-8-methoxy-7-(3-methyl-1-piperazinyl)-4-oxo-3-quinolinecarboxylic acid]: the “solubility compared with the metastable sesquihydrate” value in data set [4] (aqueous dosage forms) is on record as “less soluble”. The “aqueous solubility (rank among the three major hydrates)” value in data set [4] (listed as pentahydrate) is recorded as “lowest”. Moreover, in data set [5], the “form change or other degradation” value is reported as “no evidence of form change or other degradation”. Moreover, the “physical stability of the crystalline form” value in data set [6] (compared with the other crystalline forms, conversion over time) is recorded as “most physically stable form”.
With `COc1c(N2CCNC(C)C2)c(F)cc2c(=O)c(C(=O)O)cn(C3CC3)c12` (stereo not drawn) [hemihydrate], in data set [6] (in the presence of water), the “tendency to form higher hydrates” value is reported as “definite tendency to form higher hydrates”.
For the molecule `COc1c(N2CCNC(C)C2)c(F)cc2c(=O)c(C(=O)O)cn(C3CC3)c12` (stereo not drawn) [sesquihydrate], in data set [4], the “aqueous solubility (rank among the three major hydrates)” value was “highest”. For the same molecule, in data set [7] (tablets made from the crystalline form), the “disintegration and dissolution rates of tablets in comparison to the hemihydrate” value is “superior disintegration and dissolution rates”. Also, in data set [7] (varying conditions of humidity), the “stability in comparison to the hemihydrate” value is listed as “enhanced stability”.

Values taken from patent publication US6413969B1, “Gatifloxacin pentahydrate” (Bristol-Myers Squibb Company, priority 2000, dated 2002).
